The target of data set [1] is T1, SRSF protein kinase 3 (Homo sapiens, UniProt Q9UPE1). Briefly: Inhibition of human MSSK1 GRSRSRSRSR as substrate in presence of [gamma-33P]-ATP.
Data set [2] can be described thus: Passive permeability in MDCK cells expressing human MDR1. It counts as ADME, cell-based, Canis lupus familiaris. Conditions: dog, read-out: permeability.
Data set [3] in a line: Oral bioavailability in Swiss albino mouse at 2 mg/kg. The class given is ADME, organism-based. Conditions: in vivo.
A further data set deals with Liver. Briefly: Intrinsic clearance in human liver microsomes. The class given is ADME, microsome. A general note: Liver microsomes are a subcellular fraction often used to study metabolism.
Data set [4] deals with T2, Leucine-rich repeat serine/threonine-protein kinase 2 (Homo sapiens, UniProt Q5S007). Briefly: Inhibition of human LRRK2 using RLGRDKYKTLRQIRQ as substrate at 1uM in presence of [gamma-33P]-ATP.
T2 sequence (Q5S007 whole entry): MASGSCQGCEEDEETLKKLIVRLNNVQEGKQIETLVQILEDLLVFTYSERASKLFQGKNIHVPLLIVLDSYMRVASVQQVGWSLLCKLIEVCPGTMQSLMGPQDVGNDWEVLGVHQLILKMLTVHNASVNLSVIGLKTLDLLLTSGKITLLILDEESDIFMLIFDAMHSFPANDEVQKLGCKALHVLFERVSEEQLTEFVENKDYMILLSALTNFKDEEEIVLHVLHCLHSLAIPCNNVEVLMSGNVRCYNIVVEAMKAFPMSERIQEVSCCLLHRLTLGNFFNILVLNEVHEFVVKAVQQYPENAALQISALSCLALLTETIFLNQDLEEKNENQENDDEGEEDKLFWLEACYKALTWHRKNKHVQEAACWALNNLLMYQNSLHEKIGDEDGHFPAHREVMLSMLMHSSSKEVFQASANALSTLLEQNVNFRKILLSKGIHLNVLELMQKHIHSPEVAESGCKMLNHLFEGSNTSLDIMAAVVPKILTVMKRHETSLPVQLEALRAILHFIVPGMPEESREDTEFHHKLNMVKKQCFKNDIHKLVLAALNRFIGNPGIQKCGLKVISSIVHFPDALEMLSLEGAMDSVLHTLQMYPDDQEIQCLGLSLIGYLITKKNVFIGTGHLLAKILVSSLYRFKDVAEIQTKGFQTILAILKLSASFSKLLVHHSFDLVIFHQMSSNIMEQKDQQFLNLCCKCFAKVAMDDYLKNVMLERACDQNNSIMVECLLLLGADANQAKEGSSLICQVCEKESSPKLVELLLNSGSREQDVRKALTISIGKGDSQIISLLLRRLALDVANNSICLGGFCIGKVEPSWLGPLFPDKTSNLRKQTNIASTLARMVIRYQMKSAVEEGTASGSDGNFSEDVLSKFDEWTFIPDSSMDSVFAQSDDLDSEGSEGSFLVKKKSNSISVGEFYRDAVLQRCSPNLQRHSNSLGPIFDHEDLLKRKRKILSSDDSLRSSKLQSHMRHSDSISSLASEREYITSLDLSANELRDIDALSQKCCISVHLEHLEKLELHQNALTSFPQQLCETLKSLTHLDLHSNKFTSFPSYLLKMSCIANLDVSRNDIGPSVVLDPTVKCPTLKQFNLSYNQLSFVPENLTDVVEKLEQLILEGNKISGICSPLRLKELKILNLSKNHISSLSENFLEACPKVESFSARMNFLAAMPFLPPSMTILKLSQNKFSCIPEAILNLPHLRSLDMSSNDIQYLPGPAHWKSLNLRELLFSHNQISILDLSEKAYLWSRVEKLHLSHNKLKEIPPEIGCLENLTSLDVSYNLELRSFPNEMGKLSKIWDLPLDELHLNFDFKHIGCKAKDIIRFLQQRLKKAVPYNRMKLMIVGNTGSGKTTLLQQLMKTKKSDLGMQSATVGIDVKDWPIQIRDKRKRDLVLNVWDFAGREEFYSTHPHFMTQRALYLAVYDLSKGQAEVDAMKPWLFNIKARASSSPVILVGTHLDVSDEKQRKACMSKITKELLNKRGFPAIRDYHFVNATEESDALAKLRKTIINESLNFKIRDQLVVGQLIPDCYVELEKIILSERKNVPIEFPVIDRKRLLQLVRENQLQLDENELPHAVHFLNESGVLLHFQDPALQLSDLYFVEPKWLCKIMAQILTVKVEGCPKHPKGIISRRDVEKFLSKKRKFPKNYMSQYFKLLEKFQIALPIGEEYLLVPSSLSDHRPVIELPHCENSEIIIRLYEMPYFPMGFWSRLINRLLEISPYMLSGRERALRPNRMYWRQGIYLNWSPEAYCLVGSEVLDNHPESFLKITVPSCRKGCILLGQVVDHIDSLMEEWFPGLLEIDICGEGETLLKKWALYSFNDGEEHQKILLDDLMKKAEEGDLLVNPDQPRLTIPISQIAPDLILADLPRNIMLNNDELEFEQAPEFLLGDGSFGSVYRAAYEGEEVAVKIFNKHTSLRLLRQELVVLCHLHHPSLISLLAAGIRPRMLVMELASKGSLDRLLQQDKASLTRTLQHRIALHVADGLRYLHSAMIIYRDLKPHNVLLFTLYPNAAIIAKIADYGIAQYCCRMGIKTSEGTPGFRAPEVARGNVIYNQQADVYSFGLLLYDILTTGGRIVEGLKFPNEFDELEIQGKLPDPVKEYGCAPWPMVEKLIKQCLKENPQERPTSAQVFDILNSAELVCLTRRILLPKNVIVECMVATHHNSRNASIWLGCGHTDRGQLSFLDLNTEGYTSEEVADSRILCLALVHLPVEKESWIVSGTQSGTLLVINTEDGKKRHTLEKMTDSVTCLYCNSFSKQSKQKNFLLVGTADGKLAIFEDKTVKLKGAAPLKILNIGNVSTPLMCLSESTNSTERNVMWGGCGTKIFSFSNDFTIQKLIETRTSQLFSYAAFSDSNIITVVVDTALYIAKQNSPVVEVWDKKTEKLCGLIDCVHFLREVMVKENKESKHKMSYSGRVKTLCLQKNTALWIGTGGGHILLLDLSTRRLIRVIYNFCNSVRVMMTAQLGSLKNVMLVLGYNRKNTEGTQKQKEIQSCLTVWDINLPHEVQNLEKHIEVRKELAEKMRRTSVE
In data set [5] the target is T1, SRSF protein kinase 3. Briefly: Inhibition of human MSSK1 using GRSRSRSRSR as substrate at 1uM in presence of [gamma-33P]-ATP.
In data set [6] the test system is Mus musculus. Briefly: Dose normalized AUC in Swiss albino mouse at 1 mg/kg, iv. The following applies: in vivo. The class given is ADME, organism-based.
A short description of data set [7]: Blood clearance in Swiss albino mouse at 1 mg/kg, iv or 2 mg/kg, po. It counts as ADME, organism-based. The following applies: whole blood.
The nature of data set [8]: Volume of distribution at steady state in Swiss albino mouse at 1 mg/kg, iv or 2 mg/kg, po. The class given is ADME, organism-based. The following applies: in vivo, read-out: Vdss.
The nature of data set [9]: Half life in Swiss albino mouse at 1 mg/kg, iv or 2 mg/kg, po. It counts as ADME, organism-based. The following applies: in vivo.
Data set [10] is described as follows: Protein binding in mouse brain. It counts as ADME, tissue-based. The following applies: read-out: PB (converted).
The nature of data set [11]: Solubility of the compound. It counts as physicochemical.
A short description of data set [12]: Ratio of drug level in Swiss albino mouse brain to blood at 1 mg/kg, iv or 2 mg/kg, po. It counts as ADME, organism-based.
Data set [13] concerns the target T2, Leucine-rich repeat serine/threonine-protein kinase 2. Briefly: Inhibition of LRRK2 (unknown origin) by HTRF assay.
Data set [14] is described as follows: Half life in Swiss albino mouse at 1 mg/kg, iv or 10 mg/kg, po. It counts as ADME, organism-based. The following applies: in vivo.
In data set [15] the test system is Mus musculus. Briefly: Volume of distribution at steady state in Swiss albino mouse at 1 mg/kg, iv or 10 mg/kg, po. The class given is ADME, organism-based. Conditions: in vivo.

The record followed here is ChEMBL document CHEMBL4052807 (Bioorg Med Chem Lett, 2017).

Each structure is given as a SMILES string. Converted amounts (≈) assume the structure as drawn.

T1 sequence (Q9UPE1 whole entry): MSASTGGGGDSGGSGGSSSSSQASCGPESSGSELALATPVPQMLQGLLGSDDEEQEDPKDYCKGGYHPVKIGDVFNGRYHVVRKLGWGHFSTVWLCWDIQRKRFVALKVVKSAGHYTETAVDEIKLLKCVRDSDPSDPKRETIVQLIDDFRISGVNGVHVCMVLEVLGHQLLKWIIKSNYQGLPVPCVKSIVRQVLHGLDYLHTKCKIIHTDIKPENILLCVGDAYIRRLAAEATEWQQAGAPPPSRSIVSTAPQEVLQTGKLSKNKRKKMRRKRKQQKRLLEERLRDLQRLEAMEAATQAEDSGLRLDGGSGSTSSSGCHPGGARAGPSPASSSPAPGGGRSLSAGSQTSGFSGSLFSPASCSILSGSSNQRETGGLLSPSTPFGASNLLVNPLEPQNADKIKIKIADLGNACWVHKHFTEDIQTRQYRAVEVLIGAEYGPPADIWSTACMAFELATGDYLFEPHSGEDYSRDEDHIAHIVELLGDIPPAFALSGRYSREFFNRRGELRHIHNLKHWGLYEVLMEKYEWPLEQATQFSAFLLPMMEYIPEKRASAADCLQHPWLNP

In general, IC50 refers to the concentration at which inhibition is half-maximal. As a reminder, the bioavailability is dose-corrected exposure relative to a reference, in per cent. The low end stands for little systemic uptake, the high end for much systemic uptake. A word on the inhibition: it is the drop in the measured response relative to a control, in per cent. As a reminder, the half-life is how long it takes for the measured level to halve. A higher half-life goes with slow loss. One may read the solubility as how much of the substance goes into solution per volume. A lower solubility goes with little dissolved substance. The term Kp denotes tissue or fluid exposure divided by exposure in the circulation. As to `O=C(Nc1cccnc1)c1cc(C(F)(F)F)ccc1OCc1ccc(F)cc1`, on SRSF protein kinase 3 [1], the IC50 is 158 nM. Also, the Papp in data set [2] was > 10 ×10⁻⁶ cm/s. In [3], the bioavailability is 91.6%. The CLH in the data set with Liver came to 0.8 mL/min/g. Further, the inhibition (in [4]; at SRSF protein kinase 3 [5]) was > 40% each time. The same molecule yielded an AUC/dose with Mus musculus [6] of 597 ng·h/mL/mg/kg. In addition, the clearance in data set [7] amounted to 27.7 mL/min/kg. For the same molecule, the Vd in data set [8] stood at 2.7 L/kg. In data set [9], this molecule gave a half-life of 1.2 h. Also, in [10], the fraction unbound was 0.004. Moreover, in data set [11], the solubility was 11 µM (≈ 4.29 µg/mL). In addition, the Kp in data set [12] was 1.3.

For `O=C(Nc1cccnc1)c1cc(Br)ccc1OCc1ccccc1`, the CLH in the data set on Liver turned out to be 2.8 mL/min/g. Further, half-maximal inhibition in data set [13] (IC50) was put at 12.6 nM. Also, the solubility in [11] was < 1 µM.

In data set [13], `O=C(Nc1cccnc1)c1cc(Br)ccc1OCc1ccccc1F` had an IC50 of 7.94 nM.

`Cn1cc(-c2ccc(OCc3ccc(F)cc3)c(C(=O)Nc3cccnc3)c2)cn1`: the Papp in data set [2] was > 10 ×10⁻⁶ cm/s. In data set [3], this molecule registered a bioavailability of 10%. For the same molecule, in the data set on Mus musculus [6], the AUC/dose came to 253 ng·h/mL/mg/kg. In addition, in data set [8], the Vd amounted to 1.6 L/kg. The molecule also had a half-life in data set [9] of 0.4 h.

In the case of `O=C(Nc1cccnc1)c1cc(-c2ccnc(F)c2)ccc1OCc1ccccc1`, the Papp in data set [2] is > 10 ×10⁻⁶ cm/s. The CLH in the data set on Liver came out at 1.2 mL/min/g. In addition, the AUC/dose in the data set on Mus musculus [6] was found to be 520 ng·h/mL/mg/kg. In addition, the IC50 in data set [13] was 10 nM. Also, the fraction unbound in data set [10] was 0.003. The molecule further had a half-life in data set [14] of 1.1 h. Also, the Vdss in the data set with Mus musculus [15] stood at 2.3 L/kg.

Turning to `O=C(Nc1cccnc1)c1cc(Br)ccc1OCc1cccc(F)c1`, the IC50 in data set [13] was 15.8 nM.
